{"source": "the supplement of paper PMC10307832", "assay_in_all_cases": "relative viability (nuclei count vs DMSO), 5 days (fraction); higher = more cells survive", "key": {"NCI-H1793": {"tested_on": "NCI-H1793", "how_it_was_run": "(§1)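 Five library-drug doses in √10 steps were combined with a fixed anchor-drug dose, or a single drug was given alone, by pin tool to lung cancer cell lines in 1536-well plates the day after seeding. Nuclei were stained and counted after 5 days. Relative viability is the nuclei count in treated wells over that in vehicle wells, taken as the median of duplicate plates.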"}, "LCLC-97TM1": {"tested_on": "LCLC-97TM1", "how_it_was_run": "as §1"}, "NCI-H1915": {"tested_on": "NCI-H1915", "how_it_was_run": "as §1"}, "NCI-H1944": {"tested_on": "NCI-H1944", "how_it_was_run": "as §1"}, "NCI-H23": {"tested_on": "NCI-H23", "how_it_was_run": "as §1"}, "HARA": {"tested_on": "HARA", "how_it_was_run": "as §1"}, "SK-LU-1": {"tested_on": "SK-LU-1", "how_it_was_run": "as §1"}, "BEN": {"tested_on": "BEN", "how_it_was_run": "as §1"}, "LXF-289": {"tested_on": "LXF-289", "how_it_was_run": "as §1"}, "NCI-H650": {"tested_on": "NCI-H650", "how_it_was_run": "as §1"}, "NCI-H2170": {"tested_on": "NCI-H2170", "how_it_was_run": "as §1"}, "NCI-H2342": {"tested_on": "NCI-H2342", "how_it_was_run": "as §1"}, "NCI-H2023": {"tested_on": "NCI-H2023", "how_it_was_run": "as §1"}, "NCI-H1666": {"tested_on": "NCI-H1666", "how_it_was_run": "as §1"}, "NCI-H322M": {"tested_on": "NCI-H322M", "how_it_was_run": "as §1"}, "A-427": {"tested_on": "A-427", "how_it_was_run": "as §1"}, "NCI-H2126": {"tested_on": "NCI-H2126", "how_it_was_run": "as §1"}, "NCI-H1395": {"tested_on": "NCI-H1395", "how_it_was_run": "as §1"}, "LOU-NH91": {"tested_on": "LOU-NH91", "how_it_was_run": "as §1"}, "LU99A": {"tested_on": "LU99A", "how_it_was_run": "as §1"}, "PC-3 [JPC-3]": {"tested_on": "PC-3 [JPC-3]", "how_it_was_run": "as §1"}, "NCI-H441": {"tested_on": "NCI-H441", "how_it_was_run": "as §1"}, "NCI-H1755": {"tested_on": "NCI-H1755", "how_it_was_run": "as §1"}, "NCI-H460": {"tested_on": "NCI-H460", "how_it_was_run": "as §1"}}, "data": [{"smiles": "CCCCCCCCCCCC1=C(O)C(=O)C=C(O)C1=O", "note": "[Embelin] + Nc1ncn([C@H]2C[C@H](O)[C@@H](CO)O2)c(=O)n1 [Decitabine] (partner 2 µM)", "values": [{"measurement": "relative viability", "setting": "NCI-H1793; first compound 0.08 µM", "value": 0.586}, {"measurement": "relative viability", "setting": "NCI-H1793; first compound 0.8 µM", "value": 0.625}, {"measurement": "relative viability", "setting": "NCI-H1793; first compound 2.53 µM", "value": 0.505}, {"measurement": "relative viability", "setting": "NCI-H1793; first compound 8 µM", "value": 0.549}, {"measurement": "relative viability", "setting": "LCLC-97TM1; first compound 0.08 µM", "value": 0.241}, {"measurement": "relative viability", "setting": "LCLC-97TM1; first compound 0.8 µM", "value": 0.264}, {"measurement": "relative viability", "setting": "LCLC-97TM1; first compound 2.53 µM", "value": 0.266}, {"measurement": "relative viability", "setting": "LCLC-97TM1; first compound 8 µM", "value": 0.235}, {"measurement": "relative viability", "setting": "NCI-H1915; first compound 0.08 µM", "value": 0.265}, {"measurement": "relative viability", "setting": "NCI-H1915; first compound 0.8 µM", "value": 0.241}, {"measurement": "relative viability", "setting": "NCI-H1915; first compound 2.53 µM", "value": 0.263}, {"measurement": "relative viability", "setting": "NCI-H1915; first compound 8 µM", "value": 0.264}, {"measurement": "relative viability", "setting": "NCI-H1944; first compound 0.08 µM", "value": 0.436}, {"measurement": "relative viability", "setting": "NCI-H1944; first compound 0.8 µM", "value": 0.406}, {"measurement": "relative viability", "setting": "NCI-H1944; first compound 2.53 µM", "value": 0.5}, {"measurement": "relative viability", "setting": "NCI-H1944; first compound 8 µM", "value": 0.443}, {"measurement": "relative viability", "setting": "NCI-H23; first compound 0.08 µM", "value": 0.258}, {"measurement": "relative viability", "setting": "NCI-H23; first compound 0.8 µM", "value": 0.37}, {"measurement": "relative viability", "setting": "NCI-H23; first compound 2.53 µM", "value": 0.329}, {"measurement": "relative viability", "setting": "NCI-H23; first compound 8 µM", "value": 0.29}, {"measurement": "relative viability", "setting": "HARA; first compound 0.08 µM", "value": 0.51}, {"measurement": "relative viability", "setting": "HARA; first compound 0.8 µM", "value": 0.549}, {"measurement": "relative viability", "setting": "HARA; first compound 2.53 µM", "value": 0.587}, {"measurement": "relative viability", "setting": "HARA; first compound 8 µM", "value": 0.573}, {"measurement": "relative viability", "setting": "SK-LU-1; first compound 0.08 µM", "value": 0.617}, {"measurement": "relative viability", "setting": "SK-LU-1; first compound 0.8 µM", "value": 0.683}, {"measurement": "relative viability", "setting": "SK-LU-1; first compound 2.53 µM", "value": 0.709}, {"measurement": "relative viability", "setting": "SK-LU-1; first compound 8 µM", "value": 0.641}, {"measurement": "relative viability", "setting": "BEN; first compound 0.08 µM", "value": 0.717}, {"measurement": "relative viability", "setting": "BEN; first compound 0.8 µM", "value": 0.813}, {"measurement": "relative viability", "setting": "BEN; first compound 2.53 µM", "value": 0.812}, {"measurement": "relative viability", "setting": "BEN; first compound 8 µM", "value": 0.559}, {"measurement": "relative viability", "setting": "LXF-289; first compound 0.08 µM", "value": 0.396}, {"measurement": "relative viability", "setting": "LXF-289; first compound 0.8 µM", "value": 0.419}, {"measurement": "relative viability", "setting": "LXF-289; first compound 2.53 µM", "value": 0.455}, {"measurement": "relative viability", "setting": "LXF-289; first compound 8 µM", "value": 0.352}, {"measurement": "relative viability", "setting": "NCI-H650; first compound 0.08 µM", "value": 0.322}, {"measurement": "relative viability", "setting": "NCI-H650; first compound 0.8 µM", "value": 0.371}, {"measurement": "relative viability", "setting": "NCI-H650; first compound 2.53 µM", "value": 0.337}, {"measurement": "relative viability", "setting": "NCI-H650; first compound 8 µM", "value": 0.297}, {"measurement": "relative viability", "setting": "NCI-H2170; first compound 0.08 µM", "value": 0.514}, {"measurement": "relative viability", "setting": "NCI-H2170; first compound 0.8 µM", "value": 0.446}, {"measurement": "relative viability", "setting": "NCI-H2170; first compound 2.53 µM", "value": 0.506}, {"measurement": "relative viability", "setting": "NCI-H2170; first compound 8 µM", "value": 0.456}, {"measurement": "relative viability", "setting": "NCI-H2342; first compound 0.08 µM", "value": 0.71}, {"measurement": "relative viability", "setting": "NCI-H2342; first compound 0.8 µM", "value": 0.722}, {"measurement": "relative viability", "setting": "NCI-H2342; first compound 2.53 µM", "value": 0.842}, {"measurement": "relative viability", "setting": "NCI-H2342; first compound 8 µM", "value": 0.741}, {"measurement": "relative viability", "setting": "NCI-H2023; first compound 0.08 µM", "value": 0.249}, {"measurement": "relative viability", "setting": "NCI-H2023; first compound 0.8 µM", "value": 0.234}, {"measurement": "relative viability", "setting": "NCI-H2023; first compound 2.53 µM", "value": 0.247}, {"measurement": "relative viability", "setting": "NCI-H2023; first compound 8 µM", "value": 0.155}, {"measurement": "relative viability", "setting": "NCI-H1666; first compound 0.08 µM", "value": 0.712}, {"measurement": "relative viability", "setting": "NCI-H1666; first compound 0.8 µM", "value": 0.812}, {"measurement": "relative viability", "setting": "NCI-H1666; first compound 2.53 µM", "value": 0.78}, {"measurement": "relative viability", "setting": "NCI-H1666; first compound 8 µM", "value": 0.757}, {"measurement": "relative viability", "setting": "NCI-H322M; first compound 0.08 µM", "value": 0.603}, {"measurement": "relative viability", "setting": "NCI-H322M; first compound 0.8 µM", "value": 0.729}, {"measurement": "relative viability", "setting": "NCI-H322M; first compound 2.53 µM", "value": 0.813}, {"measurement": "relative viability", "setting": "NCI-H322M; first compound 8 µM", "value": 0.754}, {"measurement": "relative viability", "setting": "A-427; first compound 0.08 µM", "value": 0.494}, {"measurement": "relative viability", "setting": "A-427; first compound 0.8 µM", "value": 0.555}, {"measurement": "relative viability", "setting": "A-427; first compound 2.53 µM", "value": 0.561}, {"measurement": "relative viability", "setting": "A-427; first compound 8 µM", "value": 0.54}, {"measurement": "relative viability", "setting": "NCI-H2126; first compound 0.08 µM", "value": 0.514}, {"measurement": "relative viability", "setting": "NCI-H2126; first compound 0.8 µM", "value": 0.519}, {"measurement": "relative viability", "setting": "NCI-H2126; first compound 2.53 µM", "value": 0.589}, {"measurement": "relative viability", "setting": "NCI-H2126; first compound 8 µM", "value": 0.513}, {"measurement": "relative viability", "setting": "NCI-H1395; first compound 0.08 µM", "value": 0.712}, {"measurement": "relative viability", "setting": "NCI-H1395; first compound 0.8 µM", "value": 0.872}, {"measurement": "relative viability", "setting": "NCI-H1395; first compound 2.53 µM", "value": 0.699}, {"measurement": "relative viability", "setting": "NCI-H1395; first compound 8 µM", "value": 0.698}, {"measurement": "relative viability", "setting": "LOU-NH91; first compound 0.08 µM", "value": 0.825}, {"measurement": "relative viability", "setting": "LOU-NH91; first compound 0.8 µM", "value": 0.893}, {"measurement": "relative viability", "setting": "LOU-NH91; first compound 2.53 µM", "value": 0.852}, {"measurement": "relative viability", "setting": "LOU-NH91; first compound 8 µM", "value": 0.801}, {"measurement": "relative viability", "setting": "LU99A; first compound 0.08 µM", "value": 1.01}, {"measurement": "relative viability", "setting": "LU99A; first compound 0.8 µM", "value": 1.08}, {"measurement": "relative viability", "setting": "LU99A; first compound 2.53 µM", "value": 0.942}, {"measurement": "relative viability", "setting": "LU99A; first compound 8 µM", "value": 0.91}, {"measurement": "relative viability", "setting": "PC-3 [JPC-3]; first compound 0.08 µM", "value": 0.776}, {"measurement": "relative viability", "setting": "PC-3 [JPC-3]; first compound 0.8 µM", "value": 0.882}, {"measurement": "relative viability", "setting": "PC-3 [JPC-3]; first compound 2.53 µM", "value": 0.919}, {"measurement": "relative viability", "setting": "PC-3 [JPC-3]; first compound 8 µM", "value": 0.821}, {"measurement": "relative viability", "setting": "NCI-H441; first compound 0.08 µM", "value": 0.221}, {"measurement": "relative viability", "setting": "NCI-H441; first compound 0.8 µM", "value": 0.268}, {"measurement": "relative viability", "setting": "NCI-H441; first compound 2.53 µM", "value": 0.198}, {"measurement": "relative viability", "setting": "NCI-H441; first compound 8 µM", "value": 0.237}, {"measurement": "relative viability", "setting": "NCI-H1755; first compound 0.08 µM", "value": 0.767}, {"measurement": "relative viability", "setting": "NCI-H1755; first compound 0.8 µM", "value": 0.72}, {"measurement": "relative viability", "setting": "NCI-H1755; first compound 2.53 µM", "value": 0.781}, {"measurement": "relative viability", "setting": "NCI-H1755; first compound 8 µM", "value": 0.753}, {"measurement": "relative viability", "setting": "NCI-H460; first compound 0.08 µM", "value": 0.455}, {"measurement": "relative viability", "setting": "NCI-H460; first compound 0.8 µM", "value": 0.511}, {"measurement": "relative viability", "setting": "NCI-H460; first compound 2.53 µM", "value": 0.577}, {"measurement": "relative viability", "setting": "NCI-H460; first compound 8 µM", "value": 0.254}]}]}
